Assay results: US20070270436A1, “NOVEL AMINO- AND IMINO-ALKYLPIPERAZINES” (Recordati Ireland Limited, priority 2006, published 2007)
Read-outs that look alike come from different tables or passages of the source.

Assays:
[1] = target: T1, human 5HT1A-serotonergic receptor (Homo sapiens, UniProt P08908); assay: Radioligand binding to recombinant 5-HT1A receptor ([3H]8-OH-DPAT, HeLa cell membranes); details: 1 nM [3H]8-OH-DPAT; Ki from IC50 by the Cheng equation; read-out: Ki (nM), binding affinity for 5HT1A receptor
T1 construct: expressed in transfected cells; host or cells: HeLa (human), stably transfected; membranes
T1 sequence (P08908 1-422): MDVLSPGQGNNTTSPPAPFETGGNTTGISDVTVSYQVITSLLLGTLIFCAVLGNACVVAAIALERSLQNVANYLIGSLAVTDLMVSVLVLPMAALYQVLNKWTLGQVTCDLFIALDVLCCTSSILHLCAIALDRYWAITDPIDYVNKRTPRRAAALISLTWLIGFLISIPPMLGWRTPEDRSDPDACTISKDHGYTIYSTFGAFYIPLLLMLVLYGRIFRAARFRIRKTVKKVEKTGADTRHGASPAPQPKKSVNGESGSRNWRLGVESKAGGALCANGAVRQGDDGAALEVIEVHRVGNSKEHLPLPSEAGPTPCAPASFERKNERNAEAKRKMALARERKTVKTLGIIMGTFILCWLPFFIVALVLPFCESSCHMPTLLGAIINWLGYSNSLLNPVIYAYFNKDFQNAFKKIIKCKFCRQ
Summary of the method: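 Membranes from HeLa cells stably expressing human 5-HT1A incubated 30 min at 30 °C with 1 nM [3H]8-OH-DPAT in 50 mM Tris pH 7.4, 2.5 mM MgCl2, 10 μM pargyline; non-specific binding with 10 μM 5-HT. Filtration read-out; IC50 by curve fitting, converted to Ki via Cheng-Prusoff.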

5-HT1A receptors = target: T2, 5-HT1A receptors (Rattus norvegicus, UniProt P19327); assay: Inhibition of serotonergic syndrome (forepaw treading) induced by 8-OH-DPAT in rats (post-synaptic antagonism); type: in vivo; details: for inhibition at 10 mg/kg: rat
T2 construct: from tissue; host or cells: living male Sprague-Dawley rats (whole animal, behavioural read-out)
T2 sequence (P19327 1-422): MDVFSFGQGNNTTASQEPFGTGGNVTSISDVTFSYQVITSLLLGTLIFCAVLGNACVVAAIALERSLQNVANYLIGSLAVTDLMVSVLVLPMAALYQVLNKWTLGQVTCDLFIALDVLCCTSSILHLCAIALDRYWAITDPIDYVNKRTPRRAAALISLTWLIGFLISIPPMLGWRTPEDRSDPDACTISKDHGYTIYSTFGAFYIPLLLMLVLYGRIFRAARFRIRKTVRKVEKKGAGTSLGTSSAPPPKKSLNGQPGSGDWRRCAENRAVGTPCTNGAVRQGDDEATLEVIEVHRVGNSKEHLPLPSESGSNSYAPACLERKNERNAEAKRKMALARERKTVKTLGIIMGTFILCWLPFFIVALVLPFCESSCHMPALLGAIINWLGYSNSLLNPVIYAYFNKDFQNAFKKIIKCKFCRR
Description: The inhibitory effect of 5-HT1A-receptor antagonists on stereotyped forepaw treading induced in rats by subcutaneous injection of 8-OH-DPAT was evaluated by the method of Tricklebank (Tricklebank et al., Eur. J. Pharmacol., 117: 15, 1985) with minor modifications as described below.
Male Sprague-Dawley rats [Crl: CD® (SD) IGS BR] weighing 150-175 g from Charles River Italia were used. The animals were housed with free access to food and water and maintained on a forced 12-hour-light/12-hour-dark cycle at 22-24° C. of temperature. On the day of the experiment, the rats were placed singly in clear plastic containers, 10-15 minutes before oral administration of the vehicle or compounds to be tested. For evaluation of antagonistic activity, the compounds were administered 1 and 4 hours before induction of stereotypy by 8-OH-DPAT (1 mg/kg subcutaneously). Observation sessions lasted 30 seconds and began 3 minutes after 8-OH-DPAT treatment and were repeated every 3 minutes over a period of 15 minutes.
The appearance of the symptoms induced by postsynaptic stimulation of 5-HT1A receptors was noted, and the intensity was scored using an intensity scale in which: 0=absent, 1=equivocal, 2=present and 3=intense. Behavioural scores for treated rats were accumulated throughout the observation time (5 observation periods) and expressed as mean values of 4 rats/dose. Change in mean values of treated animals in comparison with control (vehicle) group, expressed as per-cent inhibition, was used to quantify the antagonistic activity.
In order to quantitate the potency of the compound of Example 24 in inhibiting the stereotypy (forepaw treading) induced by 8-OH-DPAT, an ED50 value (dose inhibiting by 50% the forepaw treading) was evaluated by means of linear regression using the least square method.

SMILES | Ki [1] [nM] | % Inhibition of forepaw treading, 1 h (5-HT1A receptors; 10 mg/kg p.o., 1 h before 8-OH-DPAT 1 mg/kg s.c.) [%] | % Inhibition of forepaw treading, 4 h (5-HT1A receptors; 10 mg/kg p.o., 4 h before 8-OH-DPAT 1 mg/kg s.c.) [%] | ED50 (dose inhibiting by 50% the forepaw treading) (95% CL), 1 hour (5-HT1A receptors; 1 hour after oral administration) | ED50 (dose inhibiting by 50% the forepaw treading) (95% CL), 4 hours (5-HT1A receptors; 4 hours after oral administration) | inhibition at 10 mg/kg (5-HT1A receptors; 10 mg/kg p.o., 1 h before 8-OH-DPAT 1 mg/kg s.c., read-out: % Inhibition of forepaw treading, 1 h) [%] | inhibition at 10 mg/kg (5-HT1A receptors; 10 mg/kg p.o., 4 h before 8-OH-DPAT 1 mg/kg s.c., read-out: % Inhibition of forepaw treading, 4 h) [%]
COc1ccccc1N1CCN(CCC(c2ccccc2F)C(C2CCCCC2)N(C)C(C)=O)CC1 (racemic) [Example 16, (RS,SR)- and (RS,RS)-N-{-1-Cyclohexyl-2-(2-fluorophenyl)-4-[4-(2-methoxyphenyl)piperazin-1-yl]butyl}-N-methylacetamide] | 0.86 | 80 | 69 | – | – | – | –
COc1ccccc1N1CCN(CC[C@@H](c2ccccc2F)[C@H](NC(=S)N(C)C)C2CCCCC2)CC1 (racemic) [Example 24, 3-{(RS,SR)-1-Cyclohexyl-2-(2-fluorophenyl)-4-[4-(2-methoxyphenyl)-piperazin-1-yl]butyl}-1,1-dimethylthiourea] | 1.23 | – | – | 2.86 (2.12-3.8) mg/kg p.o. | 3.67 (2.81-4.93) mg/kg p.o. | 100 | 90
